Source: patent US10138255B2, “Piperazine derivatives as HIV protease inhibitors” (Merck Sharp & Dohme Corp., priority 2014, dated 2018)

Each compound was assayed on HIV-1 (H9IIIB strain) (assay: Cell-Based HIV Infection Assay Using a Reporter (MT4-GFP cells)). Conditions: Human immunodeficiency virus 1, inflection point (IP) of viral growth inhibition; MT4-GFP cells infected with HIV-1 H9IIIB; 50% normal human serum; mean of at least two independent experiments; read-out: Cell Based IP (50% NHS).
In short: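 MT4-GFP cells (HIV LTR-driven GFP) bulk-infected with HIV-1 H9IIIB at low MOI for 24 h, washed, then exposed to compounds in RPMI plus 50% normal human serum, 0.4% DMSO. Infected cells counted at 24 and 48 h; R0 = 48 h/24 h ratio, inhibition normalised to DMSO and triple-drug control; IP from 4-parameter fit.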
For `N[C@H](C(=O)Nc1cncc(F)c1CC[C@H]1CN[C@@H]2CCCS(=O)(=O)N1C2)[C@@H](c1ccc(Cl)cc1)c1cc(F)cc(F)c1` [Example 236, (βS)-β-(4-chlorophcnyl)-N-(4-{2-[(6R,9S)-2,2-dioxido-2-thia-1,7-diazabicyclo[4.3.1]dec-9-yl]ethyl}-5-fluoropyridin-3-yl)-3,5-difluoro-L-phenylalaninamide], the EC50 was 2.8 nM. `COC(=O)N[C@H](C(=O)Nc1cccc(F)c1CC[C@H]1CN[C@@H]2CCCS(=O)(=O)N1C2)C(c1ccc(F)cc1)[C@H]1C[C@@H](C)O[C@@H](C)C1` (stereo partly drawn) [Example 83, methyl [(1S)-2-[(2R,4r,6S)-2,6-dimethyltetrahydro-2H-pyran-4-yl]-1-[(2-{2-[(6R,9S)-2,2-dioxido-2-thia-1,7-diazabicyclo[4.3.1]dec-9-yl]ethyl}-3-fluorophenyl)carbamoyl]-2-(4-fluorophenyl)ethyl]carbamate] gave an EC50 of 8.2 nM. In the case of `C[C@@H]1CC([C@H](c2ccc(F)cc2)[C@H](N)C(=O)Nc2cccc(F)c2CC[C@H]2CN[C@@H]3CCCS(=O)(=O)N2C3)C[C@@H](C)O1` (stereo partly drawn) [Example 113, (βR)-β-[(2R,6R)-2,6-dimethyltetrahydro-2H-pyran-4-yl]-N-(2-{2-[(6R,9S)-2,2-dioxido-2-thia-1,7-diazabicyclo[4.3.1]dec-9-yl]ethyl}-3-fluorophenyl)-4-fluoro-L-phenylalaninamide], the EC50 is reported as 22 nM. For `N[C@H](C(=O)Nc1cncc(F)c1CC[C@H]1CN[C@@H]2CCCS(=O)(=O)N1C2)C1(c2ccc(Cl)cc2)CCOCC1` [Example 233, (2S)-2-amino-2-[4-(4-chlorophenyl)tetrahydro-2H-pyran-4-yl]-N-(4-{2-[(6R,9S)-2,2-dioxido-2-thia-1,7-diazabicyclo[4.3.1]dec-9-yl]ethyl}-5-fluoropyridin-3-yl)ethanamide], the EC50 was 67 nM. For `COC(=O)N[C@H](C(=O)N[C@H]1CCC[C@@H]1CC[C@H]1CN[C@@H]2CCCS(=O)(=O)N1C2)[C@@H](c1ccc(F)cc1)c1cc(F)cc(F)c1` [Example 56, methyl [(1S,2S)-2-(3,5-difluorophenyl)-1-{[(1S,2R)-2-{2-[(6R,9S)-2,2-dioxido-2-thia-1,7-diazabicyclo[4.3.1]dec-9-yl]ethyl}cyclopentyl]carbamoyl}-2-(4-fluorophenyl)ethyl]carbamate], the EC50 was 24 nM. In the case of `COC(=O)N[C@H](C(=O)N[C@H]1CCCC[C@@H]1CC[C@H]1CN[C@@H]2CCCS(=O)(=O)N1C2)[C@@H](c1ccc(Cl)cc1)C(C)C` [Example 96, methyl [(1S,2S)-2-(4-chlorophenyl)-1-{[(1S,2R)-2-{2-[(6R,9S)-2,2-dioxido-2-thia-1,7-diazabicycIo[4.3.1]dec-9-yl]ethyl}cyclohexyl]carbamoyl}-3-methylbutyl]carbamate], the EC50 is reported as 180 nM. Work on `CO[C@H]1CC[C@H]([C@H](c2ccc(F)cc2)[C@H](N)C(=O)Nc2ccc(F)c(F)c2CC[C@H]2CN[C@@H]3CCCS(=O)(=O)N2C3)CC1` [Example 180, (βR)-N-(2-{2-[(6R,9S)-2,2-dioxido-2-thia-1,7-diazabicyclo[4.3.1]dec-9-yl]ethyl}-3,4-difluorophenyl)-4-fluoro-β-[(1r,4R)-4-methoxycyclohexyl]-L-phenylalaninamide] yielded an EC50 of 11 nM. Compound `CO[C@H](C(C)C)[C@H](c1ccc(F)cc1)[C@H](N)C(=O)Nc1cccc(F)c1CCC1CN[C@@H]2CCCS(=O)(=O)N1C2` (stereo partly drawn) [Example 88, (βR)-N-(2-{2-[(6R)-2,2-dioxido-2-thia-1,7-diazabicyclo[4.3.1]dec-9-yl]ethyl)-3-fluorophenyl)-4-fluoro-β-[(1R)-1-methoxy-2-methylpropyl]-L-phenylalaninamide] has an EC50 of 91 nM. With `COC(=O)N[C@H](C(=O)N[C@H]1CCCC[C@@H]1CC[C@H]1CN[C@@H]2CCCS(=O)(=O)N1C2)[C@H](c1cncc(F)c1)c1ccc(Cl)c(F)c1` [Example 99, methyl [(1S,2S)-2-(4-chloro-3-fluorophenyl)-1-{[(1S,2R)-2-{2-[(6R,9S)-2,2-dioxido-2-thia-1,7-diazabicyclo[4.3.1]dec-9-yl]ethyl}cyclohexyl]carbamoyl}-2-(5-fluoropyridin-3-yl)ethyl]carbamate] the EC50 was 55 nM. With `N[C@H](C(=O)Nc1cccc(F)c1CCC1CNC2CCCS(=O)(=O)N1C2)[C@@H](c1ccc(Cl)cc1)C1CCC(F)(F)CC1` (stereo partly drawn) [Example 53, (βR)-4-chloro-β-(4,4-difluorocyclohexyl)-N-{2-[2-(2,2-dioxido-2-thia-1,7-diazabicyclo[4.3.1]dec-9-yl)ethyl]-3-fluorophenyl}-L-phenylalaninamide] the EC50 was 24 nM. `CC(F)(F)c1ccc([C@H](c2ccc(Cl)cc2)[C@H](N)C(=O)Nc2cncc(F)c2CC[C@H]2CN[C@@H]3CCCS(=O)(=O)N2C3)cn1` [Example 246, (2S,3R)-2-amino-3-(4-chlorophenyl)-3-(6-(1,1-difluoroethyl)pyridin-3-yl)-9-(4-(2-((6R,9S)-2,2-dioxido-2-thia-1,7-diazabicyclo[4.3.1]decan-9-yl)ethyl)-5-fluoropyridin-3-yl)propanamide] was tested, and the EC50 was 19 nM. `COC(=O)N[C@H](C(=O)Nc1cccc(F)c1CCC1CNC2CCCS(=O)(=O)N1C2)[C@@H](c1ccc(F)cc1)c1ccc(C2CC2)cc1` (stereo partly drawn) [Example 60, methyl [(1S,2R)-2-(4-cyclopropylphenyl)-1-({2-[2-(2,2-dioxido-2-thia-1,7-diazabicyclo[4.3.1]dec-9-yl)ethyl]-3-fluorophenyl}carbamoyl)-2-(4-fluorophenyl)ethyl]carbamate] gave an EC50 of 9.9 nM. For `CC1(C)CC([C@H](c2ccc(Cl)cc2)[C@H](NCC2CC2)C(=O)N[C@H]2CCC[C@@H]2CC[C@H]2CN[C@@H]3CCCS(=O)(=O)N2C3)CCO1` (stereo partly drawn) [Example 181, (βR)-4-chloro-Nα-(cyclopropylmethyl)-β-(2,2-dimethyltetrahydro-2H-pyran-4-yl)-N-[(1S,2R)-2-{2-[(6R,9S)-2,2-dioxido-2-thia-1,7-diazabicyclo[4.3.1]dec-9-yl]ethyl)cyclopentyl]-L-phenylalaninamide], the EC50 was 640 nM. Compound `N[C@H](C(=O)Nc1cccc(F)c1CCC1CNC2CCCS(=O)(=O)N1C2)[C@H](c1ccc(F)cc1)C1CCC(F)(F)CC1` (stereo partly drawn) [Example 61, (βS)-β-(4,4-difluorocyclohexyl)-N-{2-[2-(2,2-dioxido-2-thia-1,7-diazabicyclo[4.3.1]dec-9-yl)ethyl]-3-fluorophenyl}-4-fluoro-L-phenylalaninamide] has an EC50 of 160 nM. `COC(=O)N[C@H](C(=O)Nc1cccc(F)c1CC[C@H]1CN[C@@H]2CCCS(=O)(=O)N1C2)[C@@H](c1ccc(F)cc1)C1C[C@@H](C)O[C@H](C)C1` (stereo partly drawn) [Example 112, methyl [(1S,2R)-2-[(2R,6R)-2,6-dimethyltetrahydro-2H-pyran-4-yl]-1-[(2-{2-[(6R,9S)-2,2-dioxido-2-thia-1,7-diazabicyclo[4.3.1]dec-9-yl]ethyl}-3-fluorophenyl)carbamoyl]-2-(4-fluorophenyl)ethyl]carbamate] showed an EC50 of 42 nM. With `N[C@H](C(=O)Nc1cccc(F)c1CCC1CNC2CCCS(=O)(=O)N1C2)[C@H](c1cncc(F)c1)c1ccc(Cl)c(F)c1` (stereo partly drawn) [Example 44, (βS)-4-chloro-N-{2-[2-(2,2-dioxido-2-thia-1,7-diazabicyclo[4.3.1]dec-9-yl)ethyl]-3-fluorophenyl}-3-fluoro-β-(5-fluoropyridin-3-yl)-L-phenylalaninamide] the EC50 was 4.5 nM. `COC(=O)N[C@@H](C(=O)N[C@H]1CCC[C@@H]1CC[C@H]1CN[C@@H]2CCCS(=O)(=O)N1C2)[C@@H](c1ccc(Cl)cc1)C1CCN(C(=O)OC2(C)CC2)CC1` [Example 138, 1-methylcyclopropyl 4-{(1R,2R)-1-(4-chlorophenyl)-3-{[(1S,2R)-2-{2-[(6R,9S)-2,2-dioxido-2-thia-1,7-diazabicyclo[4.3.1]dec-9-yl]ethyl}cyclopentyl]amino}-2-[(methoxycarbonyl)amino]-3-oxopropyl}piperidine-1-carboxylate] gave an EC50 of 490 nM. For `COC(=O)N[C@H](C(=O)Nc1cccc(F)c1CC[C@H]1CN[C@@H]2CCCS(=O)(=O)N1C2)[C@@H](c1ccc(F)cc1)[C@H]1CC[C@H](O)CC1` [Example 201, methyl [(1S)-2-[(2-{2-[(6R,9S)-2,2-dioxido-2-thia-1,7-diazabicyclo[4.3.1]dec-9-yl]ethyl}-3-fluorophenyl)amino]-1-{(R)-(4-fluorophenyl)[(1r,4R)-4-hydroxycyclohexyl]methyl}-2-oxoethyl]carbamate], the EC50 was 220 nM. Compound `COC(=O)N[C@H](C(=O)N[C@H]1CCCC[C@@H]1CC[C@H]1CN[C@@H]2CCCS(=O)(=O)N1C2)[C@@H](c1ccc(Cl)cc1)[C@@H]1CCOC(C)(C)C1` [Example 131, methyl [(1S,2R)-2-(4-chlorophenyl)-2-[(4R)-2,2-dimethyltetrahydro-2H-pyran-4-yl]-1-{[(1S,2R)-2-{2-[(6R,9S)-2,2-dioxido-2-thia-1,7-diazabicyclo[4.3.1]dec-9-yl]ethyl}cyclohexyl]carbamoyl}ethyl]carbamate] has an EC50 of 24 nM. Compound `COC(=O)N[C@H](C(=O)N[C@H]1CCC[C@@H]1CC[C@H]1CN[C@@H]2CCCS(=O)(=O)N1C2)[C@H](c1cncc(C(F)(F)F)c1)c1ccc(Cl)c(F)c1` [Example 79, methyl {(1S,2S)-2-(4-chloro-3-fluorophenyl)-1-{[(1S,2R)-2-{2-[(6R,9S)-2,2-dioxido-2-thia-1,7-diazabicyclo[4.3.1]dec-9-yl]ethyl}cyclopentyl]carbamoyl}-2-[5-(trifluoromethyl)pyridin-3-yl]ethyl}carbamate] has an EC50 of 31 nM. Work on `N[C@H](C(=O)Nc1cncc(F)c1CC[C@H]1CN[C@@H]2CCCS(=O)(=O)N1C2)[C@@H](c1ccc(Cl)cc1)c1csc(C(F)(F)F)n1` [Example 269, (βR)-4-chloro-N-(4-{2-[(6R,9S)-2,2-dioxido-2-thia-1,7-diazabicyclo[4.3.1]dec-9-yl]ethyl}-5-fluoropyridin-3-yl)-β-[2-(trifluoromethyl)-1,3-thiazol-4-yl]-L-phenylalaninamide] yielded an EC50 of 5 nM.
